Measurements as given in US7999001B2 (priority 2007, dated 2011).
“Also recorded” adds a separate entry of the source. Where two headings read alike, the source gives them in different places.

Legend:
[1] = test system: EBOV-GFP (recombinant Ebola Zaire virus expressing green fluorescence protein); assay: microbe, parasite or virus in culture; format: cell-based; conditions: for inhibition at 20 µM: Zaire ebolavirus, Vero C1008, 48 h, read-out: EBOV % Inhibition (20 μM)
EBOV-GFP = assay: microbe, parasite or virus in culture; format: cell-based, Ebola Zaire virus; conditions: for IC50: Zaire ebolavirus, Vero C1008, read-out: IC50 (read from graphs of % of control infection)
[2] = test system: MPXV-GFP (recombinant monkeypox virus expressing GFP, Zaire strain); assay: microbe, parasite or virus in culture; format: cell-based; conditions: Vero C1008, in Primates, 48 h, read-out: Monkey Pox % Inhibition (20 μM)
[3] = test system: influenza virus (H1N1 A/Texas strain); format: cell-based
[4] = test system: Lassa virus (Josiah strain); format: cell-based
[5] = test system: Rift Valley Fever Virus (ZH501 strain); format: cell-based

Row | SMILES | inhibition at 20 µM [1] | inhibition at 20 µM [2] | further results
1 | CCN(CC)CCCNc1nc(C)cc(Nc2ccc3nc(C)cc(N)c3c2)n1 [NSC 23767, N^6-(2-((3-(diethylamino)propyl)amino)-6-methyl-4-pyrimidinyl)-2-methyl-4,6-quinolinediamine] | 74.1% |  | 
2 | O=C1C(SCCO)=C(SCCO)C(=O)c2ccccc21 [NSC 95397, 2,3-bis((2-hydroxyethyl)thio)naphthoquinone] |  |  | EBOV % Inhibition (20 μM) [1]: 75.3%
3 | CC(=O)NC1=C(Sc2ccc(Cl)cc2)C(=O)c2ccccc2C1=O [NSC 128981, N-(3-((4-chlorophenyl)thio)-1,4-dioxo-1,4-dihydro-2-naphthalenyl)acetamide] | 97.7% |  | IC50 (EBOV-GFP): ~15 µM
4 | N=C(N)c1ccc(-c2cc3ccc(C(=N)N)cc3s2)cc1 [NSC 240890, 2-(4-carbamimidoylphenyl)benzothiophene-6-carboximidamide; 2-hydroxypropanoic acid] | 54.9% | 46.7% | 
5 | N=C(N)c1ccc(-c2cc3cc(C(=N)N)ccc3s2)cc1 [NSC 240891, 2-(4-carbamimidoylphenyl)benzothiophene-5-carboximidamide] | 40.3% | 99.4% | 
6 | N=C(N)c1ccc(-c2nc3ccc(C(=N)N)cc3[nH]2)cc1 [NSC 240894, 2-(4-carbamimidoylphenyl)-3H-benzoimidazole-5-carboximidamide] |  | 89.7% | 
7 | N=C(N)c1ccc(-n2cc3cc(C(=N)N)ccc3n2)cc1 [NSC 240895, 2-(4-carbamimidoylphenyl)indazole-5-carboximidamide] | 32.2% | 99.7% | 
8 | N=C(N)c1ccc(Oc2ccc(-c3cc4ccc(C(=N)N)cc4[nH]3)cc2)cc1 [NSC 240898, 2-[4-(4-carbamimidoylphenoxy)phenyl]-1H-indole-6-carboximidamide] |  | 98.1% | 
9 | N=C(N)c1ccc(-c2cc(-c3ccc(C(=N)N)cc3)on2)cc1 [NSC 240900, 4-[3-(4-carbamimidoylphenyl)oxazol-5-yl]benzenecarboximidamide] |  | 79.9% | 
10 | Cc1c2ccncc2c(C)c2c1[nH]c1ccc(O)cc12 [NSC 264136, 5,11-dimethyl-6H-pyrido[4,3-b]carbazol-9-ol] | 63.1% |  | 
11 | N=C(N)c1ccc2oc(/C=C/c3cc4cc(C(=N)N)ccc4s3)cc2c1 [NSC 266472, 2-[(E)-2-(5-carbamimidoylbenzothiophen-2-yl)ethenyl]benzofuran-5-carboximidamide] | 67.5% |  | 
12 | c1cc(-c2cc3ccc(C4=NCCN4)cc3[nH]2)ccc1C1=NCCN1 [NSC 278995, 6-(4,5-dihydro-1H-imidazol-2-yl)-2-[4-(4,5-dihydro-1H-imidazol-2-yl)phenyl]-1H-indole] |  | 99.3% | 
13 | C(=C\c1cc2cc(C3=NCCN3)ccc2o1)/c1cc2cc(C3=NCCN3)ccc2o1 [NSC 278999, 2-[2-[(E)-2-[5-(4,5-dihydro-1H-imidazol-2-yl)benzofuran-2-yl]ethenyl]benzofuran-5-yl]-4,5-dihydro-1H-imidazole] | 55.6% |  | 
14 | N=C(N)c1ccc2[nH]c(/C=C/c3cc4cc(C(=N)N)ccc4o3)cc2c1 [NSC 290107, 2-[(E)-2-(5-carbamimidoylbenzofuran-2-yl)ethenyl]-1H-indole-5-carboximidamide] | 33.6% |  | 
15 | C(=C\c1cc2cc(C3=NCCN3)ccc2o1)/c1cc2cc(C3=NCCN3)ccc2[nH]1 [NSC 290108, 5-(4,5-dihydro-1H-imidazol-2-yl)-2-[(E)-2-[5-(4,5-dihydro-1H-imidazol-2-yl)benzofuran-2-yl]ethenyl]-1H-indole] | 45% | 45.1% | 
16 | O=C(Nc1ccc(C2=NCCN2)cc1)c1cc2cc(C3=NCCN3)ccc2o1 [NSC 290111, 5-(4,5-dihydro-1H-imidazol-2-yl)-N-[4-(4,5-dihydro-1H-imidazol-2-yl)phenyl]benzofuran-2-carboxamide] | 40% |  | 
17 | N=C(N)c1ccc2cc(/C=C/c3cc4ccc(C(=N)N)cc4o3)oc2c1 [NSC 294199, 2-[(E)-2-(6-carbamimidoylbenzofuran-2-yl)ethenyl]benzofuran-6-carboximidamide] | 68.8% | 40.9% | 

Row | SMILES | inhibition at 20 µM [1] | inhibition at 20 µM [2] | further results
18 | N=C(N)c1ccc2oc(/C=C/c3cc4ccc(C(=N)N)cc4o3)cc2c1 [NSC 294202, 2-[(E)-2-(5-carbamimidoylbenzofuran-2-yl)ethenyl]benzofuran-6-carboximidamide] | 71.2% |  | antiviral activity toward influenza virus [3]: showed antiviral activity; inhibition of influenza virus replication [3]: more than one log; also recorded: inhibit the replication; dose dependent antiviral activity toward EBOV-GFP (EBOV-GFP): dose dependent antiviral activity; IC50 (EBOV-GFP): ~6 µM; antiviral activity toward LV (Lassa virus) [4]: showed antiviral activity; antiviral activity toward RVFV [5]: showed antiviral activity
19 | O=C(Nc1ccc(C2=NCCN2)cc1)c1cc2ccc(C3=NCCN3)cc2[nH]1 [NSC 294206, 6-(4,5-dihydro-1H-imidazol-2-yl)-N-[4-(4,5-dihydro-1H-imidazol-2-yl)phenyl]-1H-indole-2-carboxamide] | 61.5% | 86% | dose dependent antiviral activity toward EBOV-GFP (EBOV-GFP): dose dependent antiviral activity
20 | O=C(Nc1ccc(C2=NCCN2)cc1)c1cc2ccc(C3=NCCN3)cc2o1 [NSC 294208, 6-(4,5-dihydro-1H-imidazol-2-yl)-N-[4-(4,5-dihydro-1H-imidazol-2-yl)phenyl]benzofuran-2-carboxamide] | 38.8% |  | 
21 | N=C(N)c1ccc(-c2[nH]c3cc(C(=N)N)ccc3c2N)cc1 [NSC 300509, 3-amino-2-(4-carbamimidoylphenyl)-1H-indole-6-carboximidamide] |  | 84.9% | 
22 | N=C(N)c1ccc(-c2ccc(-c3ccc(C(=N)N)cc3)s2)cc1 [NSC 300510, 4-[5-(4-carbamimidoylphenyl)thiophen-2-yl]benzenecarboximidamide] | 59.7% | 89.9% | dose dependent antiviral activity toward EBOV-GFP (EBOV-GFP): dose dependent antiviral activity
23 | N=C(N)c1ccc2oc(/C=C/C=C/c3cc4cc(C(=N)N)ccc4o3)cc2c1 [NSC 300511, 2-[(1E,3E)-4-(5-carbamimidoylbenzofuran-2-yl)buta-1,3-dienyl]benzofuran-5-carboximidamide] | 49.2% |  | 
24 | c1cc(-c2cc3cc(C4=NCCN4)ccc3s2)ccc1C1=NCCN1 [NSC 308569, 2-[2-[4-(4,5-dihydro-1H-imidazol-2-yl)phenyl]benzothiophen-5-yl]-4,5-dihydro-1H-imidazole] | 35.3% | 95.8% | 
25 | C(=C\c1cc2cc(C3=NCCN3)ccc2o1)/c1ccc(C2=NCCN2)cc1 [NSC 308570, 2-[2-[(E)-2-[4-(4,5-dihydro-1H-imidazol-2-yl)phenyl]ethenyl]benzofuran-5-yl]-4,5-dihydro-1H-imidazole] | 30.7% |  | 
26 | C(/C=C/c1cc2cc(C3=NCCN3)ccc2o1)=C\c1cc2cc(C3=NCCN3)ccc2o1 [NSC 308571, 2-[2-[(1E,3E)-4-[5-(4,5-dihydro-1H-imidazol-2-yl)benzofuran-2-yl]buta-1,3-dienyl]benzofuran-5-yl]-4,5-dihydro-1H-imidazole] | 61.2% |  | 
27 | N=C(N)c1ccc(/C=C/C=C/c2cc3cc(C(=N)N)ccc3o2)cc1 [NSC 308572, 2-[(1E,3E)-4-(4-carbamimidoylphenyl)buta-1,3-dienyl]benzofuran-5-carboximidamide] | 32.8% |  | 
28 | C(/C=C/c1cc2cc(C3=NCCN3)ccc2o1)=C\c1ccc(C2=NCCN2)cc1 [NSC 308573, 2-[2-[(1E,3E)-4-[4-(4,5-dihydro-1H-imidazol-2-yl)phenyl]buta-1,3-dienyl]benzofuran-5-yl]-4,5-dihydro-1H-imidazole] | 54.2% |  | 
29 | c1cc2cc(-c3cc4ccc(C5=NCCN5)cc4[nH]3)[nH]c2cc1C1=NCCN1 [NSC 330688, 6-(4,5-dihydro-1H-imidazol-2-yl)-2-[6-(4,5-dihydro-1H-imidazol-2-yl)-1H-indol-2-yl]-1H-indole] | 51.3% | 84.9% | 
30 | N=C(N)c1ccc2c(c1)=NC(=C(N)N)C=2 [NSC 330689, 2-(diaminomethylidene)indole-6-carboximidamide] |  | 89.9% | 
31 | NC(N)=NN=Cc1ccc2cc(-c3ccc(/C=N/N=C(N)N)cc3)sc2c1 [NSC 341909, 2-[[2-[4-[(E)-(diaminomethylidenehydrazinylidene)methyl]phenyl]benzothiophen-6-yl]methylideneamino]guanidine] | 57.5% | 95.8% | 
32 | c1cc(-c2[nH]c3cc(C4=NCCN4)ccc3c2-c2cc3ccc(C4=NCCN4)cc3[nH]2)ccc1C1=NCCN1 [NSC 341911, 6-(4,5-dihydro-1H-imidazol-2-yl)-3-[6-(4,5-dihydro-1H-imidazol-2-yl)-1H-indol-2-yl]-2-[4-(4,5-dihydro-1H-imidazol-2-yl)phenyl]-1H-indole] | 33.2% |  | 
33 | c1cc(-c2[nH]c3cc(C4=NCCN4)ccc3c2-c2cc3ccc(C4=NCCN4)cc3[nH]2)ccc1C1=NCCN1 [NSC 352341, 6-(4,5-dihydro-1H-imidazol-2-yl)-3-[6-(4,5-dihydro-1H imidazol-2-yl)-1H-indol-2-yl]-2-[4-(4,5-dihydro-1H-imidazol-2-yl)phenyl]-1H-indole] |  |  | EBOV % Inhibition (20 μM) ([1]; 20 µM): 41.2%
34 | Nc1ccc(-c2cc3ccc(C4=NCCN4)cc3[nH]2)cc1 [NSC 369715, 4-(6-(4,5-dihydro-1H-imidazol-2-yl)-1H-indol-2-yl)phenylamine] | 56.8% |  | 
